Results taken from patent publication EP3046573B1, “AMYLIN ANALOGUES” (Zealand Pharma A/S, priority 2013, dated 2015).
Like-named read-outs stand apart in the source and are kept apart here. Numbered stars: 1 amine (or outer) side, 2 acyl side, 3 side chain; on linkers, the order of the positions; unused ones are H or OH. Bridge positions count the residues as written; N and C are the ends. Square brackets hold non-standard residues; d marks the D form. Peptide text beside a SMILES is read from it. * marks the point of attachment. C20 diacid = O=C(O)CCCCCCCCCCCCCCCCCCC(=O)*; γGlu = O=C(O)[C@H](CCC(=O)[*:2])N[*:1]; NMeI = CC[C@H](C)[C@H](NC)C(=O)O; Sar = CNCC(=O)O

Assays:
[1] = Solubility assessment (turbidity absorbance at 325 nm); type: physicochemical; settings: stock 2 mg/ml diluted 1:1, ambient temperature (typically 25°C), n=1; for Solubility, Acetate buffer pH 4: 100 mM acetate buffer pH 4.0; for Solubility, Acetate buffer pH 5: 100 mM acetate buffer pH 5.0; for Solubility, Histidine buffer pH 6: 100 mM histidine buffer pH 6.0; for Solubility, Histidine buffer pH 7: 100 mM histidine buffer pH 7.0; for Solubility, Phosphate buffer pH 6: 100 mM phosphate buffer pH 6.0; for Solubility, Phosphate buffer pH 7: 100 mM phosphate buffer pH 7.0; for Solubility, Phosphate buffer pH 7.5: 100 mM phosphate buffer pH7.5
Outline: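 Turbidity read as absorbance at 325 nm (also 280 nm), single samples at ambient temperature (typically 25°C); ≤ 0.02 units counts as ≥ 1 mg/ml soluble. Samples made by 1:1 dilution of a 2 mg/ml acidic stock into 100 mM acetate, histidine or phosphate buffers, pH 4.0–7.5.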

[2] = target: T1, human calcitonin receptor (hCTR2) (Homo sapiens, UniProt P30988); assay: hCTR2 assay: induction of cAMP (AlphaScreen cAMP Assay kit) in COS7 cells expressing hCTR2; type: cell-based
T1 construct: expressed in transfected cells
T1 sequence (P30988 25-474): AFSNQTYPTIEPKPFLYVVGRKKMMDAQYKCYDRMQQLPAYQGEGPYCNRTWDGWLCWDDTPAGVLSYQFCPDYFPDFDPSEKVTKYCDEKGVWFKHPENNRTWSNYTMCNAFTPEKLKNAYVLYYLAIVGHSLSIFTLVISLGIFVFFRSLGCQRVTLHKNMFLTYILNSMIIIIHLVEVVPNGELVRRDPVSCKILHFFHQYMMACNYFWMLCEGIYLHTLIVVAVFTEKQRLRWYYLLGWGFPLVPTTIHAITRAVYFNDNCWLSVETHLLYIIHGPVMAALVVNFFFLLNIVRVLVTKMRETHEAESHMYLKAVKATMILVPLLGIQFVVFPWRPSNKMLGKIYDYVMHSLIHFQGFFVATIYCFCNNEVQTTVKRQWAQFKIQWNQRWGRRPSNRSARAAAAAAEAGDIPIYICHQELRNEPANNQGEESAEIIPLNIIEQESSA
Outline: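 Peptide-induced cAMP in hCTR2-expressing COS7 cells, 15 min at 37° C with phosphodiesterase inhibitor IBMX (100 µM), detected by AlphaScreen; potency from 4PL curves.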

[3] = system: Sprague Dawley (SD) rats; assay: Acute food intake and body weight in normal Sprague Dawley rats; type: in vivo; settings: vehicle-corrected, dose 30 nmol/kg sc, once; for Body weight loss (%) after 96 hours: mean ± SEM, n = 8
Outline: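 Normal male-unspecified SD rats, n = 8 per group, given a single s.c. peptide dose of 30 nmol/kg just before dark phase, with vehicle and positive control groups. Food intake recorded at 0, 4, 7, 10, 24, 48, 72 and 96 h; body weight daily; means ± SEM.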

[4] = cAMP induction in COS7 cells expressing hCTR2, average of a minimum of 3 determinations, read-out: hCTR2 EC50

Compound | Solubility, Acetate buffer pH 4 [1] | Solubility, Acetate buffer pH 5 [1] | Solubility, Histidine buffer pH 6 [1] | Solubility, Histidine buffer pH 7 [1] | Solubility, Phosphate buffer pH 6 [1] | Solubility, Phosphate buffer pH 7 [1] | Solubility, Phosphate buffer pH 7.5 [1] | EC50 [2, 4] | Food intake inhibition (%) after 48 hours [3] | Body weight loss (%) after 96 hours [3] | EC50 [2]
CC[C@H](C)[C@@H](C(=O)N[C@@H](CC(C)C)C(=O)N[C@@H](CO)C(=O)N[C@@H](CO)C(=O)N[C@H](C(=O)N[C@@H](CC(=O)O)C(=O)N[C@H](C(=O)NCC(=O)N[C@@H](CO)C(=O)N[C@@H](CC(=O)O)C(=O)N[C@H](C(=O)N1CCC[C@H]1C(N)=O)[C@@H](C)O)C(C)C)[C@@H](C)O)N(C)C(=O)[C@H](C)NC(=O)CN(C)C(=O)[C@H](Cc1ccccc1)NC(=O)[C@H](CO)NC(=O)[C@H](CO)NC(=O)[C@H](CO)NC(=O)[C@H](CO)NC(=O)[C@H](CCCNC(=N)N)NC(=O)[C@H](Cc1c[nH]cn1)NC(=O)[C@H](CC(C)C)NC(=O)[C@H](Cc1ccccc1)NC(=O)[C@H](CCC(=O)O)NC(=O)[C@H](C)NC(=O)[C@H](CC(C)C)NC(=O)[C@H](CCCNC(=N)N)NC(=O)[C@H](CCC(N)=O)NC(=O)[C@@H](NC(=O)[C@H](C)NC(=O)[C@@H]1CSSC[C@H](NC(=O)[C@H](CCCNC(=N)N)NC(=O)CC[C@H](NC(=O)CCCCCCCCCCCCCCCCCCC(=O)O)C(=O)O)C(=O)N[C@@H](CC(N)=O)C(=O)N[C@@H]([C@@H](C)O)C(=O)N[C@@H](C)C(=O)N[C@@H]([C@@H](C)O)C(=O)N1)[C@@H](C)O [Compound 73, [19CD]-isoGlu-RC()NTATC()ATQRLAEFLHRSSSSF-Gly(Me)-A-Ile(Me)-LSSTDVGSDTP-NH2] ({C20 diacid-γGlu}-RCNTATCATQRLAEFLHRSSSSF[Sar]A[NMeI]LSSTDVGSDTP-NH2; disulfide 2-7) | SS (SS indicates solubility ≥ 1mg/ml) | II (II indicates solubility ≤ 1 mg/ml) | SS (SS indicates solubility ≥ 1mg/ml) | SS (SS indicates solubility ≥ 1mg/ml) | SS (SS indicates solubility ≥ 1mg/ml) | SS (SS indicates solubility ≥ 1mg/ml) | SS (SS indicates solubility ≥ 1mg/ml) | 0.072 nM | 93% | 11 ± 1.8% | 
CC[C@H](C)[C@@H](C(=O)N[C@@H](CC(C)C)C(=O)N[C@@H](CO)C(=O)N[C@@H](CO)C(=O)N[C@H](C(=O)N[C@@H](CCC(=O)O)C(=O)N[C@H](C(=O)NCC(=O)N[C@@H](CO)C(=O)N[C@@H](CCC(=O)O)C(=O)N[C@H](C(=O)N1CCC[C@H]1C(N)=O)[C@@H](C)O)C(C)C)[C@@H](C)O)N(C)C(=O)[C@H](C)NC(=O)CN(C)C(=O)[C@H](Cc1ccccc1)NC(=O)[C@H](CO)NC(=O)[C@H](CO)NC(=O)[C@H](CO)NC(=O)[C@H](CO)NC(=O)[C@H](CCCNC(=N)N)NC(=O)[C@H](Cc1c[nH]cn1)NC(=O)[C@H](CC(C)C)NC(=O)[C@H](Cc1ccccc1)NC(=O)[C@H](CCC(=O)O)NC(=O)[C@H](C)NC(=O)[C@H](CC(C)C)NC(=O)[C@H](CCCNC(=N)N)NC(=O)[C@H](CCC(N)=O)NC(=O)[C@@H](NC(=O)[C@H](C)NC(=O)[C@@H]1CSSC[C@H](NC(=O)[C@H](CCCNC(=N)N)NC(=O)CC[C@H](NC(=O)CCCCCCCCCCCCCCCCCCC(=O)O)C(=O)O)C(=O)N[C@@H](CC(N)=O)C(=O)N[C@@H]([C@@H](C)O)C(=O)N[C@@H](C)C(=O)N[C@@H]([C@@H](C)O)C(=O)N1)[C@@H](C)O [Compound 76, [19CD]-isoGlu-RC()NTATC()ATQRLAEFLHRSSSSF-Gly(Me)-A-Ile(Me)-LSSTEVGSETP-NH2] ({C20 diacid-γGlu}-RCNTATCATQRLAEFLHRSSSSF[Sar]A[NMeI]LSSTEVGSETP-NH2; disulfide 2-7) | SS (SS indicates solubility ≥ 1mg/ml) | II (II indicates solubility ≤ 1 mg/ml) | SS (SS indicates solubility ≥ 1mg/ml) | SS (SS indicates solubility ≥ 1mg/ml) | SS (SS indicates solubility ≥ 1mg/ml) | SS (SS indicates solubility ≥ 1mg/ml) | SS (SS indicates solubility ≥ 1mg/ml) | 0.19 nM | 100% | 11 ± 1.2% | 
CC[C@H](C)[C@@H](C(=O)N[C@@H](CC(C)C)C(=O)N[C@@H](CO)C(=O)N[C@@H](CO)C(=O)N[C@H](C(=O)N[C@@H](CCC(=O)O)C(=O)N[C@H](C(=O)NCC(=O)N[C@@H](CO)C(=O)N[C@@H](CCC(=O)O)C(=O)N[C@H](C(=O)N1CCC[C@H]1C(N)=O)[C@@H](C)O)C(C)C)[C@@H](C)O)N(C)C(=O)[C@H](C)NC(=O)CN(C)C(=O)[C@H](Cc1ccccc1)NC(=O)[C@H](CO)NC(=O)[C@H](CO)NC(=O)[C@H](CCCNC(=N)N)NC(=O)[C@H](Cc1c[nH]cn1)NC(=O)[C@H](CC(C)C)NC(=O)[C@H](Cc1ccccc1)NC(=O)[C@H](CCC(=O)O)NC(=O)[C@H](C)NC(=O)[C@H](CC(C)C)NC(=O)[C@H](CCCNC(=N)N)NC(=O)[C@H](CCC(N)=O)NC(=O)[C@@H](NC(=O)[C@H](C)NC(=O)[C@@H]1CSSC[C@H](NC(=O)[C@H](CCCNC(=N)N)NC(=O)CC[C@H](NC(=O)CCCCCCCCCCCCCCCCCCC(=O)O)C(=O)O)C(=O)N[C@@H](CC(N)=O)C(=O)N[C@@H]([C@@H](C)O)C(=O)N[C@@H](C)C(=O)N[C@@H]([C@@H](C)O)C(=O)N1)[C@@H](C)O [Compound 82, [19CD]-isoGlu-RC()NTATC()ATQRLAEFLHRSSF-Gly(Me)-A-Ile(Me)-LSSTEVGSETP-NH2] ({C20 diacid-γGlu}-RCNTATCATQRLAEFLHRSSF[Sar]A[NMeI]LSSTEVGSETP-NH2; disulfide 2-7) | SS (SS indicates solubility ≥ 1mg/ml) | SS (SS indicates solubility ≥ 1mg/ml) | SS (SS indicates solubility ≥ 1mg/ml) | SS (SS indicates solubility ≥ 1mg/ml) | SS (SS indicates solubility ≥ 1mg/ml) | SS (SS indicates solubility ≥ 1mg/ml) | SS (SS indicates solubility ≥ 1mg/ml) | 0.07 nM | 93% | 13 ± 1.0% | 
CC[C@H](C)[C@@H](C(=O)N[C@@H](CC(C)C)C(=O)N[C@@H](CO)C(=O)N[C@@H](CO)C(=O)N[C@H](C(=O)N[C@@H](CC(N)=O)C(=O)N[C@H](C(=O)NCC(=O)N[C@@H](CO)C(=O)N[C@@H](CC(N)=O)C(=O)N[C@H](C(=O)N1CCC[C@H]1C(N)=O)[C@@H](C)O)C(C)C)[C@@H](C)O)N(C)C(=O)[C@H](C)NC(=O)CN(C)C(=O)[C@H](Cc1ccccc1)NC(=O)[C@H](CC(N)=O)NC(=O)[C@H](CC(N)=O)NC(=O)[C@H](CO)NC(=O)[C@H](CO)NC(=O)[C@H](CCCNC(=N)N)NC(=O)[C@H](Cc1c[nH]cn1)NC(=O)[C@H](CC(C)C)NC(=O)[C@H](Cc1ccccc1)NC(=O)[C@H](CCC(=O)O)NC(=O)[C@H](C)NC(=O)[C@H](CC(C)C)NC(=O)[C@H](CCCNC(=N)N)NC(=O)[C@H](CCC(N)=O)NC(=O)[C@@H](NC(=O)[C@H](C)NC(=O)[C@@H]1CSSC[C@H](NC(=O)[C@H](CCCCN)NC(=O)[C@H](CCCCN)NC(=O)CC[C@H](NC(=O)CCCCCCCCCCCCCCCCCCC(=O)O)C(=O)O)C(=O)N[C@@H](CC(N)=O)C(=O)N[C@@H]([C@@H](C)O)C(=O)N[C@@H](C)C(=O)N[C@@H]([C@@H](C)O)C(=O)N1)[C@@H](C)O [Compound 87, [19CD]-isoGlu-KKC()NTATC()ATQRLAEFLHRSSNNF-Gly(Me)-A-Ile(Me)-LSSTNVGSNTP-NH2] ({C20 diacid-γGlu}-KKCNTATCATQRLAEFLHRSSNNF[Sar]A[NMeI]LSSTNVGSNTP-NH2; disulfide 3-8) | SS (SS indicates solubility ≥ 1mg/ml) | SS (SS indicates solubility ≥ 1mg/ml) | SS (SS indicates solubility ≥ 1mg/ml) | SS (SS indicates solubility ≥ 1mg/ml) | SS (SS indicates solubility ≥ 1mg/ml) | SS (SS indicates solubility ≥ 1mg/ml) | SS (SS indicates solubility ≥ 1mg/ml) |  | 98% | 10 ± 1.2% | 0.046 nM
